The values below come from patent US20240165272A1, “Liver-targeted fluorescence/photoacoustic dual-modal probe for early detecting drug-induced hepatic inflammation and autoimmune hepatitis” (BEIJING UNIVERSITY OF TECHNOLOGY, priority 2022, published 2024).

Data set [1] can be described thus: Fluorescence response of hCy-Tf-CA to O2·^− in ethanol-phosphate buffer. The procedure: (§1) 10 μL of probe stock solution (1 mM) was added to 1 mL of ethanol-phosphate buffer solution (ethanol/PBS=1/1, v/v, pH=7.4). To characterize the responsiveness of hCy-Tf-CA, 40 μL O2·^− stock solution (2.5 mM) was added to above solution.
The reaction system was prepared under the same experimental conditions. […] That is due to the nucleophilic O2·^− cleavage of trifluoromethonium sulfonate, which restored the strong electron-donating phenol and it-conjugation on the fluorophore. […] The probe hCy-Tf-CA is an enhanced fluorescence probe.
Under the same experimental conditions, 10 μL of probe stock solution (1 mM) was added to 1 mL of ethanol-phosphate buffer solution, the O2·^− titration experiment was then carried out. The fluorescence intensity at 730 nm were tested 10 minutes later. […] (FIGS. 4 and 5).

Data set [2] in a line: Photoacoustic response of hCy-Tf-CA to O2·^−. Particulars: probe 10 μM, O2·^− 100 μM, 10 min. The procedure: as §1
The reaction system was prepared under the same experimental conditions. […] The photoacoustic signal of hCy-Tf-CA only at 710 nm is very weak (FIG. 3).
Under the same experimental conditions, 10 μL of probe stock solution (1 mM) was added to 1 mL of ethanol-phosphate buffer solution, the O2·^− titration experiment then was carried out and the photoacoustic intensity at 710 nm were tested 10 minutes later.

The test system of data set [3] is mouse model of drug-induced hepatic inflammation. The data set is described as follows: Fluorescence/photoacoustic dual-modal imaging of drug-induced (APAP) hepatic inflammation. It counts as in vivo, Balb/c female mice. The method, then:
In order to visually detect hepatic O2·^− concentration and drug-induced hepatic inflammation by fluorescence/photoacoustic dual-modal imaging, Balb/c female mice were intraperitoneally injected with overdose of APAP (300 mg/Kg) to cause drug-induced hepatic inflammation, and PBS injected mice served as the control group. The probe hCy-Tf-CA (50 μM, 100 μL) were administrated intravenously for in vivo fluorescence/photoacoustic dual-modal imaging. Images at predetermined time points were recorded on IVIS imaging system (Perkin Elmer, λex=675 nm, λem=760 nm) and InVision 256-TF imaging system (iThera Medical, λex=710 nm).

Data set [4] concerns mouse model of autoimmune hepatitis. As to the kind of experiment: Fluorescence/photoacoustic dual-modal imaging of autoimmune hepatitis (Con A). It counts as in vivo, Balb/c female mice. The method, then:
In order to visually detect autoimmune hepatitis by fluorescence/photoacoustic dual-modal imaging, Balb/c female mice were intravenously injected with a single dose Con A (20 mg/Kg, dissolved in 100 μL PBS) for 2 h to induce early autoimmune hepatitis, and the remaining mice were treated with PBS solution as controls. hCy-Tf-CA was then intravenously injected into mice for in vivo imaging, and representative NIRF/PA dual-modal images of different treated mice were recorded at chosen times. Images at predetermined time points were recorded on IVIS imaging system (Perkin Elmer, λex=675 nm, λem=760 nm) and InVision 256-TF imaging system (iThera Medical, λex=710 nm).

The subject of data set [5] is HepG2 cells. The data set is described as follows: Biocompatibility study, CCK-8 assay. The format is cell-based. Particulars: 24 h exposure to 10 μM. The method, then: Inspired by the excellent responsiveness of the probe hCy-Tf-CA to O2·^−, its biocompatibility and potential for further applications in living cells were assessed. HepG2 cells were plated in a 96-well plates at […] and incubated overnight in the cell incubator. Then the cells were washed with culture medium and incubated with various concentrations of hCy-Tf-CA (1, 2, 4, 8, 10 μM) at 37° C. for 24 h. After removing the above solution, CCK-8 reagent diluted with culture medium was added to each well and incubated at 37° C. for 60 min. Finally, the absorbance was finally measured at 450 nm by a microplate reader. Cell viability was calculated using the following formula:
Calculation of cell viability: Cell viability (%)=(Aexperimental group−Ablank group)/(Acontrol group−Ablank group)×100%.

The subject of data set [6] is HepG2 cells. As to the kind of experiment: Fluorescence imaging of endogenous O2·^− in HepG2 cells. The format is cell-based. The procedure:
To evaluate the capacity of hCy-Tf-CA to image O2·^− fluctuation in living cells, HepG2 cells were plated in a glass-bottom dish for 24 h to 80% density before the experiment. Cell fluorescence imaging of hCy-Tf-CA was divided into five groups. In the first group, hCy-Tf-CA (10 μM) was incubated with cells for 30 min. In the second group, cells were pretreated with lipopolysaccharide (LPS, 1 μg/mL) and interferon-gamma (IFN-γ, 50 ng/mL) for 12 h, then washed twice with PBS buffer before incubating with hCy-Tf-CA (10 μM) for 30 min. In the third group, cells were pretreated with LPS (1 μg/mL), IFN-γ (50 ng/mL) and 2,2,6,6-tetramethylpiperidine-N-oxyl (TEMPO, 300 μM) for 12 h, then washed twice with PBS buffer before incubating with hCy-Tf-CA (10 μM) for 30 min. In the fourth and fifth groups, cells were pretreated with H2O2 or Na2SO3 (100 μM) for 30 min, then washed twice with PBS buffer before incubating with hCy-Tf-CA (10 μM) for 30 min. The cells were washed 3 times with PBS buffer before cell imaging. Fluorescence images of the cells were captured by a Nikon AX R microscope with DAPI channel (λex'404 nm, λem=425-475 nm) and Cy5.5 channel (λex=639 nm, λem=663-738).

Data set [7] is described as follows: Selective response: fluorescence against potential interferents. Particulars: probe 10 μM. The method, then: The specificity of hCy-Tf-CA was determined against various potential interferents (Na^+, K^+, Ca^2+, Mg^2+, Zn^2+, Cu^2+, HS^−, HClO, H2O2, ·OH, ONOO^−, glucose, glutathione, cysteine, vitamin C, nitroreductase, alkaline phosphatase, β-galactosidase and leucine aminopeptidase). Under the same experimental conditions, 10 μL of probe stock solution (1 mM) was added to 1 mL of ethanol-phosphate buffer solution. Then stock solutions of various potential interferents were respectively added to above solution, then the fluorescence intensity at 730 nm was tested. […] Therefore, these potential interferents barely effect on the selective response to O2·^−, implying that the probe hCy-Tf-CA prepared by the invention has good selectivity.

In the case of `C[C@H](CCC(=O)NCCC[N+]1=C(/C=C/C2=C3Oc4cc(OS(=O)(=O)C(F)(F)F)c(Cl)cc4C=C3CCC2)C(C)(C)c2c1ccc1ccccc21)[C@H]1CC[C@H]2[C@@H]3[C@H](O)C[C@@H]4C[C@H](O)CC[C@]4(C)[C@H]3C[C@H](O)[C@]12C` [hCy-Tf-CA], the “O2·^− concentration at which fluorescence intensity reached a plateau” value in data set [1] (probe 10 μM, 10 min, at 740 nm as printed) worked out at 100 µM. For the same molecule, in data set [1] (probe 10 μM, O2·^− 100 μM, 10 min, λex=680 nm, ethanol/PBS=1/1, pH=7.4), the “fluorescence intensity at 730 nm increase compared with probe alone” value worked out at 17 fold. The “fluorescence intensity increase after reaction with O2·^−” value in data set [1] (summary statement) was 17 times. In addition, in data set [2], the “photoacoustic signal enhancement at 710 nm after treatment with O2·^−” value turned out to be 7 fold. Besides, the “ex vivo hepatic fluorescence signal, APAP-treated mice versus health mice” value in data set [3] (2 h after intravenous administration) is reported as “obviously higher”. For the same molecule, the “ex vivo organ distribution of fluorescence signal” value in data set [3] (2 h after intravenous administration, liver versus heart, spleen, lung and kidney) is “mainly located in the liver”. For the same molecule, the “in vivo fluorescence signal intensity, APAP-treated mice versus control mice” value in data set [3] (2 h post-injection, probe 50 μM 100 μL i.v., APAP 300 mg/Kg i.p.) is listed as “significantly higher”. The “photoacoustic signal in the liver, APAP-treated mice versus healthy mice” value in data set [3] (λex=710 nm, cross-sectional images) is “significantly higher”. The “in vivo fluorescence signal intensity in the liver region of Con A-treated mice over time” value in data set [4] (Con A 20 mg/Kg i.v. for 2 h, probe i.v.) is given as “gradually enhanced”. In addition, in data set [4] (after injection of probe), the “rate of increase of hepatic photoacoustic signal, Con A-treated mice versus control mice” value was “increased faster”. Also, in data set [4] (at 2 h, λex=710 nm), the “photoacoustic signal in the liver, Con A-treated mice versus healthy mice” value is “obviously higher”. The “location of fluorescence signals (ex vivo)” value in data set [4] (both groups (Con A-treated and control)) is “mainly located in the liver”. Further, the “ex vivo fluorescence signals, Con A-treated mice versus control mice” value in data set [4] (mouse, in vivo) was “apparently brighter”. For the same molecule, the cell viability result in the data set with HepG2 cells [5] was “more than 90%”. Also, the “intracellular fluorescence after LPS/IFN-γ in the presence of TEMPO” value in the data set with HepG2 cells [6] (HepG2, LPS/IFN-γ plus TEMPO 300 μM for 12 h, probe 10 μM 30 min) was “largely suppressed”. In the data set on HepG2 cells [6] (HepG2, probe 10 μM, 30 min, no pretreatment), the “intracellular fluorescence, normal conditions” value is on record as “weak fluorescence”. In the data set on HepG2 cells [6] (HepG2 pretreated with H2O2 or Na2SO3 100 μM for 30 min, probe 10 μM 30 min), the “fluorescence fluctuations in H2O2-treated or SO3^2−-treated cells” value was “negligible”. Also, in the data set on HepG2 cells [6] (HepG2 pretreated with LPS 1 μg/mL and IFN-γ 50 ng/mL for 12 h, probe 10 μM 30 min), the “intracellular fluorescence intensity after LPS/IFN-γ” value is recorded as “significantly increased”. Besides, the “fluorescence response to O2·^− in the selectivity test” value in data set [7] (730 nm) is on record as “significant response”. The “fluorescence response at 730 nm to potential interferents” value in data set [7] (analytes 100 μM, enzyme 0.1 U·mL^−1) was “barely respond”.
